According to PMC8047011, “Enantiomers of 2-methylglutamate and 2-methylglutamine selectively impact mouse brain metabolism and behavior” (Scientific Reports, 2021):
Where two headings read alike, the source gives them in different places.

Legend:
mGluR2 = molecular target: T1, mGluR2 (Homo sapiens, UniProt Q14416); test: mGluR2 radioligand binding assay; conditions: triplicate
T1 construct: purchased SB Drug Discovery (CNS discovery panel, FLIPR); Eurofins Discovery (Cerep)
Description: (§1) mGluR1, mGluR2, mGluR5 and GABAB binding assays were performed by Eurofins Discovery. […]
(§2) [3H]CGP-54626 and [3H]quisqalic acid, respectively. All compounds were tested at a single
(§3) concentration of 100 uM in triplicate. […]

mGluR5 = molecular target: T2, mGluR5 (Homo sapiens, UniProt P41594); test: mGluR5 radioligand binding assay; conditions: triplicate
T2 construct: purchased SB Drug Discovery (CNS discovery panel, FLIPR); Eurofins Discovery (Cerep)
T2 sequence (P41594 21-1212): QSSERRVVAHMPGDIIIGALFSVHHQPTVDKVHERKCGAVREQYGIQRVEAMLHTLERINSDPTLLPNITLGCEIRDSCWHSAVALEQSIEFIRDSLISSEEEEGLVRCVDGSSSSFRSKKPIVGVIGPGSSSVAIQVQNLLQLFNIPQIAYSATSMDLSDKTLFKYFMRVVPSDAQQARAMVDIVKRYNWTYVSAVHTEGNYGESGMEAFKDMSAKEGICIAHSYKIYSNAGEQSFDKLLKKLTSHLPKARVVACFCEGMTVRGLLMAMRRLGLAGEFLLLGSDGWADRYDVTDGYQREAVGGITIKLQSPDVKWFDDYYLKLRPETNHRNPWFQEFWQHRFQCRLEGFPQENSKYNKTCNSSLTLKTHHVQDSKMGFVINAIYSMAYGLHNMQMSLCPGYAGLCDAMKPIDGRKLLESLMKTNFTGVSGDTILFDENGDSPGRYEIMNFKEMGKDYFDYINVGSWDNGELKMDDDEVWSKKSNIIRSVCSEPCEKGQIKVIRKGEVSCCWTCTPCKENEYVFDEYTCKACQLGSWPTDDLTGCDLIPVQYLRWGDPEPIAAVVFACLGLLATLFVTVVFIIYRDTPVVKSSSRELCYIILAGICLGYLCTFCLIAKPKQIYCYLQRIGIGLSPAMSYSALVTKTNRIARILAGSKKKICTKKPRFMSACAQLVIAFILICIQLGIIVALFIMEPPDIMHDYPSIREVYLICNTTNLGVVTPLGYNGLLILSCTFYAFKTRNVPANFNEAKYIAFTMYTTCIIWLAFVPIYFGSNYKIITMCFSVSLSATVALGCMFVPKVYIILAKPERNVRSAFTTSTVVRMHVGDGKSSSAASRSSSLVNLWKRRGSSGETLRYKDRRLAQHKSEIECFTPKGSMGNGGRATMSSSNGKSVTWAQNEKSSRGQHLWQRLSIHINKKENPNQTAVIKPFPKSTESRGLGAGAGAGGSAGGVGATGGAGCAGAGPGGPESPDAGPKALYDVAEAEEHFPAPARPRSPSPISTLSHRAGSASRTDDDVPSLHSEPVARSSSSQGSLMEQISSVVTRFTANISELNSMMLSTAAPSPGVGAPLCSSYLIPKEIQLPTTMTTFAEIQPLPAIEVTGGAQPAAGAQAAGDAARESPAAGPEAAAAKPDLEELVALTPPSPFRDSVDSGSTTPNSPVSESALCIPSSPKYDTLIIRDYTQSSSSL
Description: as §1
mGluR5 and GABAB binding assays were performed using recombinant CHO-K1 cells and
as §2, §3

NMDA nonspecific = test: Nonspecific NMDA binding assay; conditions: 100 μM, triplicate; rat
Description: Nonspecific AMPA, kainate and NMDA binding assays were performed by Eurofins Discovery
(Cerep) using rat cerebral cortex membranes and radiolabeled [3H]AMPA, [3H]kainic acid and
[3H]CGP 39653, respectively. […]

[1] = Pharmacokinetics in mouse serum and brain; assay type: in vivo; conditions: 100 mg/kg IP
Description: Pharmacokinetics on 2MeGlu and 2MeGln in mice
C57BL/6 mice (Jackson Laboratory cat. no. 000664) were administered 100 mg/kg IP. At the times indicated, mice were deeply anesthetized by isoflurane, blood was collected by cardiac puncture and left to clot on ice, and then animals were perfused with cold PBS until viscera […]
dissected and one half frozen at –80 °C until homogenization in ice cold PBS (pH 7.4) using a probe ultrasonic homogenizer (Branson Sonifier 450, Power: 5, Cycle: 30%, time: 10 s) on ice.
The lysate was centrifuged (2,500g for 15 min at 4 °C) and the supernatant was assayed using Pierce BCA Protein Assay Kit (23225) using BioTek Epoch plate spectrophotometer by recording absorbance at 562 nm.
Two or three 10 μL aliquots of the homogenate were transferred to a 96 well plate and extracted with 190 μL of 60% acetonitrile in water containing 10 μM GABA-d6 or 10 μM Glu-d5 and Gln-d5 as internal standards. 40 μL aliquots of the extracts were then diluted with 120 μL of acetonitrile and prepared for LC-MS/MS analysis. Brain and serum half-lives were calculated using the ‘PKNCA’ package for R. Endogenous levels of Glu, Gln and GABA were determined in the brains of mice used in the pharmacokinetics experiment. MRM transitions specific for Glu, Gln and GABA were monitored simultaneously. […]

C57Bl/6 mice [2] = test: Activity chamber open field; assay type: in vivo, mouse; conditions: for Distance moved in the activity chamber vs vehicle: n = 6; for Distance moved in the activity chamber: chronic 10 mg/kg/day IP, after one week
Excerpt: See Supplementary Methods for details. […]
Activity Chamber Open Field: Assessment was made in an Open Field Activity Arena (Med Associates Inc., St. Albans, VT. Model ENV-515) mounted with three planes of infrared detectors within a specially designed sound-attenuating chamber (Med Associates Inc., St.
Albans, VT. MED-017M-027). The arena was 43 cm (L) x 43 cm (W) x 30 cm (H) and the […]
in the periphery and center of the Arena. […]
without bedding, and in a sound isolating chamber. The activity chamber measures distance moved using infrared beams and without video recordings. […]
were used in the study. The animals were housed as described above.
The first dose was administered […]
described above for 30 min.

C57Bl/6 mice [3] = test: Chronic low dose exposure, mortality and body weight; conditions: 10 mg/kg/day IP for a month
Description: Behavioral tests were performed on 2 month-old, male, C57Bl/6 mice. We selected male mice because SBFNL historical controls are male mice. First, we assessed safety and tolerability of acute exposure to our novel chemicals through the following sequence of tests immediately following IP injection: maximum tolerated dose with novel cage observation at 100, 300, or 900 mg/kg, and then SHIRPA, activity chamber, and then hot plate latency using 100 or 30 mg/kg IP in different drug naïve mice. […] Animals were dosed daily from 3 to 5 PM after the conclusion of each behavioral testing session. […] See Supplementary Methods for details. […]
sound-attenuating chamber was 74 cm (L) x 60 cm (W) x 60 cm (H). The mice were placed in the corner of the testing arena and allowed to explore the arena for 60 min while being tracked automatically. Parameters measured include distance moved, velocity, rearing, and times spent in the periphery and center of the Arena. Periphery was defined as the zone 5 cm away from the arena wall. The Arena was cleaned with a 1% Virkon solution at the end of the trial.
The novel cage observation (vide supra) and activity chamber open field assessment are not […]
outcome. The novel cage protocol is conducted on the benchtop in a lighted room using a clean home cage, and tests habituation using video recording and scoring of behavioral performance.
Moreover, the novel cage allows the tester to visualize any other side effects such as seizure or repetitive jumping. The activity chamber is in an enclosed box, and the test is done in the dark, without bedding, and in a sound isolating chamber. The activity chamber measures distance moved using infrared beams and without video recordings.
In vivo animal studies; Chronic Efficacy Study using C57Bl/6J mice
Animal: Two month-old, naïve male C57Bl/6 mice from Jackson Laboratory (Stock ID# 000664) were used in the study. The animals were housed as described above.
Dosing: (R)-2MeGlu (10 mg/kg), (S)-2MeGlu (10 mg/kg), rac-2MeGln (10 mg/kg), and vehicle (PBS) were administered IP at 10 ml/kg dosing volume daily. […]

C57Bl/6 mice [4] = test: Y maze spontaneous alternation; assay type: in vivo, mouse; conditions: chronic 10 mg/kg/day IP, week 2 of testing
Excerpt: Y Maze Spontaneous Alternation: The Y maze is made of plastic with 3 arms in a "Y" shape.
The arms are labelled as Arm A, B, and C; Arm A is 20.32 cm (L) x 5 cm (W) 12.7 cm (H), Arm B and C are 15.24 cm (L) x 5 cm (W), and 12.7 cm (H). The test is based on the willingness of rodents to explore a novel environment and designed to measure spontaneous alternations in rodents. Each mouse was placed in the center of the maze facing Arm B. The first entry was excluded from data analysis because the animals were led to the initial arm entry by the experimenter. Using an overhead camera, the number of arm entries and alternations were recorded for 5 minutes. An arm entry is when all four paws enter into a new arm of the maze.
The apparatus was cleaned with 1% Virkon. Parameters recorded were % alternation and the total number of entries into arms. […]

[5] = read-out: % of radioligand binding inhibition, mGluR5 (first line of Table S4)
[6] = read-out: % of radioligand binding inhibition, mGluR5 (second line of Table S4)

T1 sequence (Q14416 19-872): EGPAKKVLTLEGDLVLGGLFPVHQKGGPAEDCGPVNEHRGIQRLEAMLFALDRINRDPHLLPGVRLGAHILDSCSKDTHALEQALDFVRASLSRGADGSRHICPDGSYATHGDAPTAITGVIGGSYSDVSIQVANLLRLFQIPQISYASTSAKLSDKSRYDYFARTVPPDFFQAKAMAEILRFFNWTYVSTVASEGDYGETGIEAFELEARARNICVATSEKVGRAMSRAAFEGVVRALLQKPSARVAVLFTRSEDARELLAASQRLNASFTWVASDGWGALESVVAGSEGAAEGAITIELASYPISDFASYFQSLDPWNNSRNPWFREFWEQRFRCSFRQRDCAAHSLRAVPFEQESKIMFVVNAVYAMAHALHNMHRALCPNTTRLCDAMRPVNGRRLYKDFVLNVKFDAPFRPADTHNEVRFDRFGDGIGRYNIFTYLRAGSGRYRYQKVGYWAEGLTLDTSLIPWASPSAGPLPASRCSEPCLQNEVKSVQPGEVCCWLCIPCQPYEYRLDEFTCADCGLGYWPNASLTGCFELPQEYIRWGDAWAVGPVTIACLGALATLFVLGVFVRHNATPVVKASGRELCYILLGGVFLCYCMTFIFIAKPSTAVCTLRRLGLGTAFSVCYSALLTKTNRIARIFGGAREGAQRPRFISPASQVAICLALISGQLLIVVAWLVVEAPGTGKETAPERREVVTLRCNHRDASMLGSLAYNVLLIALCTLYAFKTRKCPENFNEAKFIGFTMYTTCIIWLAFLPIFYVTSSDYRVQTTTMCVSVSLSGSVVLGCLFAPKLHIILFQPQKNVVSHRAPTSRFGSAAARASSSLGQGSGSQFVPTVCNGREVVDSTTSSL

| Structure (SMILES) | inhibition at 100 µM (mGluR2) | inhibition at 100 µM (mGluR5; [5]) | inhibition at 100 µM (mGluR5; [6]) | % of radioligand binding inhibition, NMDA nonspec (NMDA nonspecific) | Brain accumulation (with metabolite (S)-2MeGln) relative to (R)-2MeGlu [1] | Maximum brain concentration [1] | Time of peak brain concentration [1] | Distance moved in the activity chamber vs vehicle (C57Bl/6 mice [2]; acute 30 mg/kg IP) | Distance moved in the activity chamber vs vehicle (C57Bl/6 mice [2]; acute 100 mg/kg IP) | Distance moved in the activity chamber (C57Bl/6 mice [2]) | Body weight over the month (C57Bl/6 mice [3]) | Spontaneous alternation in the Y maze (C57Bl/6 mice [4]) | half-life ([1]; C57BL/6, brain, estimated) |
| --- | --- | --- | --- | --- | --- | --- | --- | --- | --- | --- | --- | --- | --- |
| C[C@](N)(CCC(=O)O)C(=O)O [(S)-2MeGlu, (S)-2-methylglutamic acid] | 25% | 11% | -4% | 3% | as much as tenfold more | 50 pmol/mg protein | 25 min | not significantly different | significantly reduced | no significant effect of treatment | no significant effect of treatment | no significant effect of treatment |  |
| CC(N)(CCC(N)=O)C(=O)O (racemic) [rac-2MeGln, rac-2-methylglutamine] |  |  |  |  |  |  | 25 min | modest but significant reduction in distance moved only at 11 min post injection | not significantly different from vehicle at any time point | no significant effect of treatment | no significant effect of treatment | no significant effect of treatment |  |
| C[C@@](N)(CCC(=O)O)C(=O)O [(R)-2MeGlu, (R)-2-methylglutamic acid] | -3% | -20% | -2% | 8% |  | 30 pmol/mg protein | ≤ 5 min | modest but significant reduction in distance moved only at 11 min post injection | significantly reduced | no significant effect of treatment | no significant effect of treatment | no significant effect of treatment | ~1.17 h |
